Measurements reported in PubChem BioAssay AID1745844 (Carcinogenic Potency Database (CPDB), 2022).

Test system: rodent lifetime carcinogenesis bioassay, tumor incidence TD50
Experiment: chronic cancer bioassays in animals – CPDB, compiled studies (AID 1745844)

## O=P(OCC(Br)CBr)(OCC(Br)CBr)OCC(Br)CBr (stereo not given)
mouse, strain B6C3F1, females, in feed, site: any site (literature study), lesion: several types, types named in the paper, dosed 103 weeks, study length 104 weeks
  TD50: 148 mg/kg/day
mouse, strain B6C3F1, females, in feed, site: liver + lung + stomach, lesion: hepatocellular adenoma + hepatocellular carcinoma + alveolar/bronchiolar adenoma + alveolar/bronchiolar carcinoma + squamous-cel, dosed 103 weeks, study length 104 weeks
  TD50: 80.1 mg/kg/day
mouse, strain B6C3F1, females, in feed, site: liver, lesion: hepatocellular adenoma + hepatocellular carcinoma + neoplastic nodule, dosed 103 weeks, study length 104 weeks
  TD50: 95 mg/kg/day
mouse, strain B6C3F1, females, in feed, site: liver, lesion: hepatocellular adenoma + hepatocellular carcinoma, dosed 103 weeks, study length 104 weeks
  TD50: 95 mg/kg/day
mouse, strain B6C3F1, females, in feed, site: liver, lesion: hepatocellular carcinoma, dosed 103 weeks, study length 104 weeks
  TD50: 221 mg/kg/day
mouse, strain B6C3F1, females, in feed, site: lung, lesion: alveolar/bronchiolar adenoma + alveolar/bronchiolar carcinoma, dosed 103 weeks, study length 104 weeks
  TD50: 225 mg/kg/day
mouse, strain B6C3F1, females, in feed, site: stomach, lesion: squamous-cell carcinoma + squamous-cell papilloma, dosed 103 weeks, study length 104 weeks
  TD50: 127 mg/kg/day
mouse, strain B6C3F1, females, in feed, site: stomach, lesion: squamous-cell carcinoma, dosed 103 weeks, study length 104 weeks
  TD50: 611 mg/kg/day
mouse, strain B6C3F1, females, in feed, site: uterus, lesion: endometrial stromal polyp, dosed 103 weeks, study length 104 weeks
  TD50: 264 mg/kg/day
mouse, strain B6C3F1, males, in feed, site: any site (literature study), lesion: several types, types named in the paper, dosed 103 weeks, study length 104 weeks
  TD50: 2220 mg/kg/day
mouse, strain B6C3F1, males, in feed, site: kidney + lung + stomach, lesion: tubular-cell adenoma + tubular-cell adenocarcinoma + alveolar/bronchiolar adenoma + alveolar/bronchiolar carcinoma + squamous-ce, dosed 103 weeks, study length 104 weeks
  TD50: 103 mg/kg/day
mouse, strain B6C3F1, males, in feed, site: kidney, lesion: tubular-cell adenocarcinoma, dosed 103 weeks, study length 104 weeks
  TD50: 822 mg/kg/day
mouse, strain B6C3F1, males, in feed, site: kidney, lesion: tubular-cell adenoma + tubular-cell adenocarcinoma, dosed 103 weeks, study length 104 weeks
  TD50: 256 mg/kg/day
mouse, strain B6C3F1, males, in feed, site: liver, lesion: hepatocellular adenoma + hepatocellular carcinoma + neoplastic nodule, dosed 103 weeks, study length 104 weeks
  TD50: 172 mg/kg/day
mouse, strain B6C3F1, males, in feed, site: lung, lesion: alveolar/bronchiolar adenoma + alveolar/bronchiolar carcinoma, dosed 103 weeks, study length 104 weeks
  TD50: 211 mg/kg/day
mouse, strain B6C3F1, males, in feed, site: lung, lesion: alveolar/bronchiolar carcinoma, dosed 103 weeks, study length 104 weeks
  TD50: 449 mg/kg/day
mouse, strain B6C3F1, males, in feed, site: stomach, lesion: squamous-cell carcinoma + squamous-cell papilloma, dosed 103 weeks, study length 104 weeks
  TD50: 197 mg/kg/day
rat, strain Fischer 344, females, in feed, site: any site (literature study), lesion: several types, types named in the paper, dosed 103 weeks, study length 104 weeks
  TD50: 23 mg/kg/day
rat, strain Fischer 344, females, in feed, site: kidney, lesion: tubular-cell adenoma, dosed 103 weeks, study length 104 weeks
  TD50: 13.8 mg/kg/day
rat, strain Fischer 344, females, in feed, site: liver, lesion: hepatocellular adenoma + hepatocellular carcinoma + neoplastic nodule, dosed 103 weeks, study length 104 weeks
  TD50: 2820 mg/kg/day
rat, strain Fischer 344, females, in feed, site: ovary, lesion: Sertoli-cell tumor, dosed 103 weeks, study length 104 weeks
  TD50: 66.4 mg/kg/day
rat, strain Fischer 344, males, by gavage, site: colon, lesion: polypoid adenoma, dosed 52 weeks, study length 52 weeks
  TD50: 13.4 mg/kg/day
rat, strain Fischer 344, males, by gavage, site: kidney, lesion: adenocarcinoma, dosed 52 weeks, study length 52 weeks
  TD50: 54.8 mg/kg/day
rat, strain Fischer 344, males, in feed, site: any site (literature study), lesion: several types, types named in the paper, dosed 103 weeks, study length 104 weeks
  TD50: 8.31 mg/kg/day
rat, strain Fischer 344, males, in feed, site: kidney, lesion: tubular-cell adenocarcinoma, dosed 103 weeks, study length 104 weeks
  TD50: 63.3 mg/kg/day
rat, strain Fischer 344, males, in feed, site: kidney, lesion: tubular-cell adenoma + tubular-cell adenocarcinoma, dosed 103 weeks, study length 104 weeks
  TD50: 1.57 mg/kg/day
rat, strain Fischer 344, males, in feed, site: kidney, lesion: tubular-cell adenoma, dosed 103 weeks, study length 104 weeks
  TD50: 1.57 mg/kg/day
rat, strain Fischer 344, males, in feed, site: liver, lesion: hepatocellular adenoma + hepatocellular carcinoma + neoplastic nodule, dosed 103 weeks, study length 104 weeks
  TD50: 34.3 mg/kg/day
rat, strain Fischer 344, males, in feed, site: liver, lesion: hepatocellular carcinoma + neoplastic nodule, dosed 103 weeks, study length 104 weeks
  TD50: 34.3 mg/kg/day
rat, strain Fischer 344, males, in feed, site: preputial gland, lesion: adenocarcinoma, NOS + adenoma, NOS + carcinoma, NOS, dosed 103 weeks, study length 104 weeks
  TD50: 20.3 mg/kg/day
